System: soluble epoxide hydrolase (sEH)
Assay: Fluorescent assay for mouse and human soluble epoxide hydrolase (CMNPC substrate)
Assay type: biochemical, mouse or human, not specified
Conditions: Conc 50 nM
Excerpt: Fluorescent Assay for Mouse and Human Soluble Epoxide Hydrolase Recombinant mouse sEH (MsEH) and human sEH (HsEH) were produced in a baculovirus expression system as previously reported. Grant et al., J. Biol. Chem., 268:17628-17633 (1993); Beetham et al., Arch. Biochem. Biophys., 305:197-201 (1993). The expressed proteins were purified from cell lysate by affinity chromatography. Wixtrom et al., Anal. Biochem., 169:71-80 (1988). Protein concentration was quantified using the Pierce BCA assay using bovine serum albumin as the calibrating standard. […] They contained no detectable esterase or glutathione transferase activity which can interfere with the assay. The assay was also evaluated with similar results in crude cell lysates or homogenate of tissues. The IC50s for each inhibitor were determined according to the following procedure: Substrate: [drawing 155] […] Jones P. D. et al.; Analytical Biochemistry 2005; 343: pp. 66-75) Solutions: Bis/Tris HCl 25 mM pH 7.0 containing 0.1 mg/mL of BSA (buffer […] at 0.25 mM in DMSO. Mother solution of enzyme in buffer A (Mouse sEH at 6 μg/mL and Human sEH at 5 μg/mL). Inhibitor dissolved in DMSO at the appropriate concentration. Protocol: In a black 96 well plate, fill all the wells with 150 μL of buffer A. Add 2 μL of DMSO in well A2 and A3, and then add 2 μL of inhibitor solution in A1 and A4 through A12. Add 150 μL of buffer A in row A, then mix several time and transfer 150 μL to row B. Repeat this operation up to row H. The 150 μL removed from row H is discarded. Add 20 μL of buffer A in column 1 and 2, then add 20 μL of enzyme solution to column 3 to 12. Incubate the plate for 5 minutes in the plate reader at 30° C. During incubation prepare the working solution of substrate by mixing 3.68 mL of buffer A (4×0.920 mL) with 266 μL (2×133 μL) of substrate solution). At t=0, add 30 μL of working substrate solution with multi-channel pipette labeled “Briggs 303” and start the reading ([S]final: 5 μM). Read with ex: 330 nm (20 nm) and em: 465 nm (20 nm) every 30 second for 10 minutes. The velocities are used to analyze and calculate the IC50s.

| % Inhibition | Compound |
| --- | --- |
| 94% | CC(C)CC(=O)N1CCC(NC(=O)Nc2ccc(C(F)(F)F)cc2)CC1 [Compound 6, 1-[1-(3-Methyl-butyryl)-piperidin-4-yl]-3-(4-trifluoromethyl-phenyl)-urea] |
| 94% | O=C(Nc1ccc(C(F)(F)F)cc1)NC1CCN(C(=O)c2cccnc2)CC1 [Compound 8, 1-[1-(Pyridine-3-carbonyl)-piperidin-4-yl]-3-(4-trifluoromethyl-phenyl)-urea] |
| 94% | O=C(Nc1ccc(C(F)(F)F)cc1)NC1CCN(C(=O)c2ccccn2)CC1 [Compound 9, 1-[1-(Pyridine-2-carbonyl)-piperidin-4-yl]-3-(4-trifluoromethyl-phenyl)-urea] |
| 75% | O=C(Nc1ccc(F)cc1)NC1CCN(C(=O)c2ccc(C(=O)O)cc2)CC1 [Compound 10, 4-{4-[3-(4-Fluoro-phenyl)-ureido]-piperidine-1-carbonyl}-benzoic acid] |
| 98% | O=C(Nc1ccc(C(F)(F)F)cc1)NC1CCN(C(=O)c2ccc(C(=O)O)cc2)CC1 [Compound 11, 4-{4-[3-(4-Trifluoromethyl-phenyl)-ureido]-piperidine-1-carbonyl}-benzoic acid] |
| 90% | O=C(Nc1ccc(F)cc1)NC1CCN(S(=O)(=O)c2cccc(C(F)(F)F)c2)CC1 [Compound 12, 1-(4-Fluoro-phenyl)-3-[1-(3-trifluoromethyl-benzenesulfonyl)-piperidin-4-yl]-urea] |
| 79% | O=C(Nc1ccc(F)cc1)NC1CCN(S(=O)(=O)c2ccccc2)CC1 [Compound 13, 1-(1-Benzenesulfonyl-piperidin-4-yl)-3-(4-fluoro-phenyl)-urea] |
| 89% | O=C(Nc1ccc(F)cc1)NC1CCN(S(=O)(=O)c2ccc(C(F)(F)F)cc2)CC1 [Compound 14, 1-(4-Fluoro-phenyl)-3-[1-(4-trifluoromethyl-benzenesulfonyl)-piperidin-4-yl]-urea] |
| 75% | O=C(Nc1ccc(Cl)cc1)NC1CCN(S(=O)(=O)c2ccc(C(=O)O)cc2)CC1 [Compound 15, 4-{4-[3-(4-Chloro-phenyl)-ureido]-piperidine-1-sulfonyl}-benzoic acid] |
| 80% | O=C(Nc1ccc(C(F)(F)F)cc1)NC1CCN(S(=O)(=O)c2ccc(C(=O)O)cc2)CC1 [Compound 16, 4-{4-[3-(4-Trifluoromethyl-phenyl)-ureido]-piperidine-1-sulfonyl}-benzoic acid] |
| 90% | O=C(Nc1ccc(C(F)(F)F)cc1)NC1CCN(S(=O)(=O)c2ccccc2)CC1 [Compound 17, 1-(1-Benzenesulfonyl-piperidin-4-yl)-3-(4-trifluoromethyl-phenyl)-urea] |
| 90% | O=C(Nc1ccc(C(F)(F)F)cc1)NC1CCN(S(=O)(=O)c2ccc(Cl)cc2)CC1 [Compound 18, 1-[1-(4-Chloro-benzenesulfonyl)-piperidin-4-yl]-3-(4-trifluoromethyl-phenyl)-urea] |
| 96% | O=C(Nc1ccc(C(F)(F)F)cc1)NC1CCN(S(=O)(=O)c2cccc(C(F)(F)F)c2)CC1 [Compound 20, 1-[1-(3-Trifluoromethyl-benzenesulfonyl)-piperidin-4-yl]-3-(4-trifluoromethyl-phenyl)-urea] |
| 91% | O=C(Nc1cccc(F)c1)NC1CCN(S(=O)(=O)c2ccc(Cl)cc2)CC1 [Compound 23, 1-[1-(4-Chloro-benzenesulfonyl)-piperidin-4-yl]-3-(3-fluoro-phenyl)-urea] |
| 86% | CS(=O)(=O)N1CCC(NC(=O)Nc2cccc(C(F)(F)F)c2)CC1 [Compound 24, 1-(1-Methanesulfonyl-piperidin-4-yl)-3-(3-trifluoromethyl-phenyl)-urea] |
| 68% | CC(=O)N1CCC(NC(=O)Nc2cccc(C(F)(F)F)c2)CC1 [Compound 25, 1-(1-Acetyl-piperidin-4-yl)-3-(3-trifluoromethyl-phenyl)-urea] |
| 80% | CS(=O)(=O)N1CCC(NC(=O)Nc2ccc(F)cc2)CC1 [Compound 27, 1-(4-Fluoro-phenyl)-3-(1-methanesulfonyl-piperidin-4-yl)-urea] |
| 95% | O=C(Nc1cccc(C(F)(F)F)c1)NC1CCN(S(=O)(=O)c2ccc(C(F)(F)F)cc2)CC1 [Compound 29, 1-[1-(4-Trifluoromethyl-benzenesulfonyl)-piperidin-4-yl]-3-(3-trifluoromethyl-phenyl)-urea] |
| 72% | O=C(Nc1ccc(C(F)(F)F)cc1)NC1CCN(C(=O)Cc2c[nH]cn2)CC1 [Compound 33, 1-[1-(2-1H-Imidazol-4-yl-acetyl)-piperidin-4-yl]-3-(4-trifluoromethyl-phenyl)-urea] |
| 89% | Cn1cnc(C(=O)N2CCC(NC(=O)Nc3ccc(C(F)(F)F)cc3)CC2)c1 [Compound 35, 1-[1-(1-Methyl-1H-imidazole-4-carbonyl)-piperidin-4-yl]-3-(4-trifluoromethyl-phenyl)-urea] |
| 93% | CC(C)S(=O)(=O)N1CCC(NC(=O)Nc2ccc(C(F)(F)F)cc2)CC1 [Compound 42, 1-(1-(Isopropylsulfonyl)piperidin-4-yl)-3-(4-(trifluoromethyl)phenyl)urea] |

| Compound | % Inhibition |
| --- | --- |
| O=C(Nc1cccc(F)c1)NC1CCN(S(=O)(=O)c2ccccc2)CC1 [Compound 22, 1-(1-Benzenesulfonyl-piperidin-4-yl)-3-(3-fluoro-phenyl)-urea] | 82% |
| O=C(Nc1cccc(C(F)(F)F)c1)NC1CCN(S(=O)(=O)c2ccccc2)CC1 [Compound 26, 1-(1-Benzenesulfonyl-piperidin-4-yl)-3-(3-trifluoromethyl-phenyl)-urea] | 90% |

Same assay, conditions: Conc 200 nM

| % Inhibition | Compound |
| --- | --- |
| 97% | CC(C)C(=O)N1CCC(NC(=O)Nc2ccc(C(F)(F)F)cc2)CC1 [Compound 45, 1-(1-isobutyrylpiperidin-4-yl)-3-(4-(trifluoromethyl)phenyl)urea] |
| 100% | CC(C)(C)CC(=O)N1CCC(NC(=O)Nc2ccc(C(F)(F)F)cc2)CC1 [Compound 48, 1-(1-(3,3-dimethylbutanoyl)piperidin-4-yl)-3-(4-(trifluoromethyl)phenyl)urea] |

Same assay, conditions: Conc 500 nM

| % Inhibition | Compound |
| --- | --- |
| 70% | O=C(Nc1ccc(F)c(F)c1)NC1CCN(C(=O)CCCN2CCOCC2)CC1 [Compound 2, 1-(3,4-Difluoro-phenyl)-3-[1-(4-morpholin-4-yl-butyryl)-piperidin-4-yl]-urea] |
| 89% | O=C(Nc1ccc(F)cc1)NC1CCN(C(=O)c2cccnc2)CC1 [Compound 7, 1-(4-Fluoro-phenyl)-3-[1-(pyridine-3-carbonyl)-piperidin-4-yl]-urea] |
| 85% | O=C(Nc1ccc(F)cc1)NC1CCN(S(=O)(=O)c2ccc(Cl)cc2)CC1 [Compound 19, 1-[1-(4-Chloro-benzenesulfonyl)-piperidin-4-yl]-3-(4-fluoro-phenyl)-urea] |
| 74% | CC(=O)N1CCC(NC(=O)Nc2ccc(F)cc2)CC1 [Compound 21, 1-(1-Acetyl-piperidin-4-yl)-3-(4-fluoro-phenyl)-urea] |
| 80% | O=C(Nc1ccc(Cl)cc1)NC1CCN(C(=O)Cc2c[nH]cn2)CC1 [Compound 34, 1-(4-Chloro-phenyl)-3-[1-(2-1H-imidazol-4-yl-acetyl)-piperidin-4-yl]-urea] |

Same assay, conditions: Conc 5000 nM

| % Inhibition | Compound |
| --- | --- |
| 96% | O=C(Nc1ccccc1)NC1CCN(C(=O)CCCN2CCOCC2)CC1 [ComparativeExample 1, 1-[1-(4-Morpholin-4-yl-butyryl)-piperidin-4-yl]-3-phenyl-urea, reference compound] |
| 80% | CC(=O)N1CCC(NC(=O)Nc2ccccc2)CC1 [ComparativeExample 5, 1-(1-Acetyl-piperidin-4-yl)-3-phenyl-urea, reference compound] |

System: not given
Assay: not given
Conditions: not given

| melting point | Compound |
| --- | --- |
| 160 to 162 °C | O=C(Nc1ccc(F)cc1)NC1CCN(S(=O)(=O)c2ccc(Cl)cc2)CC1 [Compound 19, 1-[1-(4-Chloro-benzenesulfonyl)-piperidin-4-yl]-3-(4-fluoro-phenyl)-urea] |
| 146 to 148 °C | CC(=O)N1CCC(NC(=O)Nc2ccc(F)cc2)CC1 [Compound 21, 1-(1-Acetyl-piperidin-4-yl)-3-(4-fluoro-phenyl)-urea] |
| 245 to 248 °C | O=C(Nc1cccc(F)c1)NC1CCN(S(=O)(=O)c2ccc(Cl)cc2)CC1 [Compound 23, 1-[1-(4-Chloro-benzenesulfonyl)-piperidin-4-yl]-3-(3-fluoro-phenyl)-urea] |
| 186 to 188 °C | CS(=O)(=O)N1CCC(NC(=O)Nc2ccc(F)cc2)CC1 [Compound 27, 1-(4-Fluoro-phenyl)-3-(1-methanesulfonyl-piperidin-4-yl)-urea] |
| 213 to 216 °C | CC(=O)N1CCC(NC(=O)Nc2ccc(Br)cc2)CC1 [Compound 43, 1-(1-acetylpiperidin-4-yl)-3-(4-bromophenyl)urea] |
| 240 to 242 °C | CC(C)S(=O)(=O)N1CCC(NC(=O)Nc2ccc(Br)cc2)CC1 [Compound 44, 1-(4-bromophenyl)-3-(1-(isopropylsulfonyl)piperidin-4-yl)urea] |
| 193 to 204 °C | CC(C)C(=O)N1CCC(NC(=O)Nc2ccc(Br)cc2)CC1 [Compound 46, 1-(4-bromophenyl)-3-(1-isobutyrylpiperidin-4-yl)urea] |

| Compound | melting point |
| --- | --- |
| O=C(Nc1cccc(F)c1)NC1CCN(S(=O)(=O)c2ccccc2)CC1 [Compound 22, 1-(1-Benzenesulfonyl-piperidin-4-yl)-3-(3-fluoro-phenyl)-urea] | 186 to 188 °C |
